According to patent publication US20070037846A1, “Pyrazolidinedione derivatives” (ACTELION PHARMACEUTICALS, LTD., priority 2003, published 2007):

molecular target: T1, human P2Y12 receptor (Homo sapiens, UniProt Q9H244); experiment: P2Y12 receptor binding assay (displacement of tritium-labeled 2-methyl-S-ADP on CHO cells); settings: CHO cells with recombinant human P2Y12 receptor, 2 hours at room temperature
T1 construct: expressed in transfected cells; host or cells: CHO (Chinese Hamster Ovary) cells
Protocol: The ability of the compounds of formulae (I) and (III) to bind to the P2Y12 receptor may be measured by methods similar to those described in Gachet C. et al., Br. J. Hematol. 1995, 91, 434-444 and by the method described below in Example 16.
Chinese Hamster Ovary (CHO) cells with recombinant expression of the human P2Y12 receptor were cultured in 24 well cell-culture plates. Cells were washed three times with binding buffer (50 mM Tris pH 7.4, 100 mM NaCl, 1 mM EDTA, 0.5% BSA). The cells were then incubated with 0.5 ml per well binding buffer containing tritium-labeled 2-methyl-thio-adenosine 5′-diphosphate (2-methyl-S-ADP) (between 100'000 and 300'000 dpm per well) and various concentrations of test compounds. After incubation at room temperature for 2 hours, cells were washed three times with binding buffer. Then, cells were solubilized by addition of 0.5 ml solubilization buffer (SDS, NaOH, EDTA). The content of each well was then transferred into beta-counter vials and 2.0 ml of Ultima Gold Scintillation liquid was added.
The test is conducted as described hereinabove. […] Exemplary IC50 values are given below.

T1 sequence (Q9H244 whole entry): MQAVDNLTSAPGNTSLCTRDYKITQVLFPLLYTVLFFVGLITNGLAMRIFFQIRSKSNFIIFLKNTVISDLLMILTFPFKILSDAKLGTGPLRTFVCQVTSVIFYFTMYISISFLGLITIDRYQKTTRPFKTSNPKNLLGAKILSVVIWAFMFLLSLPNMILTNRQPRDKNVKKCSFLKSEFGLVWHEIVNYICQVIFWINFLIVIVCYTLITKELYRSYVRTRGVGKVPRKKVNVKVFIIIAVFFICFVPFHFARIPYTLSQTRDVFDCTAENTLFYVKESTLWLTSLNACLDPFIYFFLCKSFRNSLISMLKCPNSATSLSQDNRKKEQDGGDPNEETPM

SMILES | IC50 [nM]
COc1ccc(C=C2C(=O)NN(c3ccccc3)C2=O)c(C)c1C [Example 2a7, 4-(2,3-Dimethyl-4-methoxy-benzylidene)-1-phenyl-pyrazolidine-3,5-dione] | 190
CCCOc1ccc(C=C2C(=O)NN(c3ccccc3)C2=O)c2c1CCCC2 [Example 2a25, 1-Phenyl-4-(4-propoxy-5,6,7,8-tetrahydro-naphthalen-1-ylmethylene)-pyrazolidine-3,5-dione] | 30
CCCOc1ccc(C=C2C(=O)NN(c3ccccc3)C2=O)c(OCCCCO)c1C [Example 2a43, 4-[1-[2-(4-Hydroxy-butoxy)-3-methyl-4-propoxy-phenyl]-methylidene]-1-phenyl-pyrazolidine-3,5-dione] | 5
CCCOc1ccc(C=C2C(=O)NN(c3ccccc3)C2=O)c2cnccc12 [Example 2a30, 1-Phenyl-4-[1-(5-propoxy-isoquinolin-8-yl)-methylidene]-pyrazolidine-3,5-dione] | 10
CCOc1ccc(C=C2C(=O)NN(c3ccccc3)C2=O)cc1C [Example 2a12, 4-(4-Ethoxy-3-methyl-benzylidene)-1-phenyl-pyrazolidine-3,5-dione] | 470
CCCOc1ccc(C=C2C(=O)NN(c3ccccc3)C2=O)c(OC[C@H](O)[C@@H](O)C(=O)O)c1C [Example 2a71, 4-[1-[2-((2S,3R)-3-carboxy-2,3-dihydroxy-propoxy)-3-methyl-4-propoxy-phenyl]-methylidene]-1-phenyl-pyrazolidine-3,5-dione] | 3
CCCOc1ccc(C=C2C(=O)NN(c3ccccc3)C2=O)c(OCCC)n1 [Example 2a35, 4-[1-(2,6-Dipropoxy-pyridin-3-yl)-methylidene]-1-phenyl-pyrazolidine-3,5-dione] | 370

Other lines, results leading:

IC50 [nM] | SMILES
1 | CCCOc1ccc(C=C2C(=O)NN(c3ccccc3)C2=O)c(OC[C@H](O)CC(=O)O)c1C [Example 2a63, 4-[1-[2-((2R)-3-Carboxy-2-hydroxy-propoxy)-3-methyl-4-propoxy-phenyl]-methylidene]-1-phenyl-pyrazolidine-3,5-dione]
40 | CCCOc1ccc(C=C2C(=O)NNC2=O)c(OCCC)c1C [Example 12a9, 4-(3-Methyl-2,4-dipropoxy-benzylidene)-pyrazolidine-3,5-dione]
83 | CCCOc1ccc(C=C2C(=O)NN(c3ccc(F)cc3)C2=O)c(C)c1C [Example 8a, 4-(2,3-Dimethyl-4-propoxy-benzylidene)-1-(4-fluoro-phenyl)-pyrazolidine-3,5-dione]
0.8 | CCCOc1ccc(C=C2C(=O)NN(c3ccccc3)C2=O)c(OC[C@@H](O)CC(=O)O)c1C [Example 2a64, 4-[1-[2-((2S)-3-Carboxy-2-hydroxy-propoxy)-3-methyl-4-propoxy-phenyl]-methylidene]-1-phenyl-pyrazolidine-3,5-dione]
9600 | CCCOc1ccc(C=C2C(=O)NN(C(C)=O)C2=O)c(C)c1C [Example 15, 1-Acetyl-4-[1-(2,3-dimethyl-4-propoxy-phenyl)-methylidene]-pyrazolidine-3,5-dione]
140 | CCCOc1ccc(C=C2C(=O)NN(c3ccccn3)C2=O)c(C)c1C [Example 4a2, 4-(2,3-Dimethyl-4-propoxy-benzylidene)-1-pyridin-2-yl-pyrazolidine-3,5-dione]
55 | CCCOc1ccc(C=C2C(=O)NNC2=O)c2c1CCCC2 [Example 12a3, 4-(4-Propoxy-5,6,7,8-tetrahydro-naphthalen-1-ylmethylene)-pyrazolidine-3,5-dione]
24 | CCCOc1ccc(C=C2C(=O)NN(c3ccccc3)C2=O)c(C)c1C [Example 1, 4-(2,3-Dimethyl-4-propoxy-benzylidene)-1-phenyl-pyrazolidine-3,5-dione]
1.6 | CCCOc1ccc(C=C2C(=O)NN(c3ccccc3)C2=O)c(OCCCCC(=O)O)c1C [Example 2a52, 4-[1-[2-(4-Carboxy-butyloxy)-3-methyl-4-propoxy-phenyl]-methylidene]-1-phenyl-pyrazolidine-3,5-dione]
15 | CCCOc1ccc(C=C2C(=O)NN(c3ccccc3)C2=O)c(OCCOC)c1C [Example 2a39, 4-[1-[2-(2-Methoxy-ethoxy)-3-methyl-4-propoxy-phenyl]-methylidene]-1-phenyl-pyrazolidine-3,5-dione]
